Measurements published in US5455251A, “Michellamine antiviral agents, compositions, and treatment methods” (The United States of America as represented by the …, priority 1993, dated 1995).
“Also recorded” adds a separate entry of the source. Read-outs that look alike come from different tables or passages of the source.

Columns and labels:
HIV-1 [1] = conditions: cultured human lymphoblastoid cell lines; Yarchoan et al. 1986; cited from earlier work
HIV-1 [2] = assay: Cytoprotection of HIV-1-infected CEM-SS cells, viability by XTT and/or BCECF, 6 days; format: cell-based; conditions: acetate salts, XTT assay, HIV-1, side-by-side comparison (Table 4), read-out: EC50 (anti-HIV-1 activity)
Experimental: (§1) A battery of interrelated assays on individual wells from 96-well microtiter plates was performed to show antiviral activity. Measurements of cellular viability, in the presence and absence of the compounds in uninfected and virus-infected cells, by an adaptation of the procedure set forth in Weislow et al., J. Natl. Cancer Inst., 81, 577-586 (1989), as well as by an adaptation of a method using the fluorescent probe 2'-7'-biscar-boxyethyl-5(6)-carboxyfluorescein acetoxymethyl ester (BCECF) as set forth in Rink et al., J. Cell Biol., 95, 189-196 (1982), were performed as described herein below. BCECF is a nonfluorescent molecule which readily enters viable cells where it is hydrolyzed by cellular esterases to a fluorescent molecule. Total cellular DNA content was measured with the dye, 2-diamidino-phenylindole (DAPI), which fluoresces when intercalated at A-T specific sites in chromatin, according to the procedure set forth in McCaffrey et al., In Vitro Cell. Develop. Biol., 24, 247-252 (1988). These dyes are used in combination with Particle Concentration Fluorescent Immunoassay technology (PCFIA), specifically the Screen Machine™ available from Baxter Healthcare Corporation (Mundelein, Ill.). The Screen Machine is a semiautomated fluorescent plate reader capable of adding reagents and/or wash buffers to filter-bottomed, 96-well plates with the subsequent evacuation of fluid and concentration of fluorescently-stained cells on the cellulose acetate filter. Fluorescence is detected via epifluorescence. […]
(§2) The appropriate amounts of the pure compounds for anti-HIV evaluations were dissolved in 100% dimethylsulfoxide (DMSO) and then diluted in complete medium to the desired initial concentration (with final DMSO content not exceeding 1%). […] Subsequently, aliquots of cell-free supernatant were removed from each well using the Biomek, and analyzed for reverse transcriptase activity, p24 antigen production, and synthesis of infectious virions (see further below). […]

uninfected CEM-SS cells = assay: Direct cytotoxicity to uninfected CEM-SS target cells (XTT/BCECF), 6 days; format: cell-based, human; conditions: acetate salts, XTT assay, Table 4
Experimental: as §1, §2

HIV-2 [3] = assay: Anti-HIV-2 (NIH-DZ strain) activity in MT-2 cells, XTT assay, 6 days; format: cell-based, HIV-2 NIH-DZ strain in human MT-2 cells; conditions: for antiviral effects against HIV-2: free bases or HBr salts, NIH-DZ strain, MT-2 cells
Experimental: (§3) The human lymphocytic target cell lines, CEM-SS and MT-2, used in the antiviral assays were maintained in RPMI 1640 medium (Gibco, Grand Island, N.Y.) without phenol red and supplemented with 5% fetal bovine serum (FBS) (Gibco), 2 mM L-glutamine, and 50 μg/ml gentamicin (Gibco) (complete medium). Exponentially-growing CEM-SS or MT-2 cells were pelleted and resuspended at a concentration of 2.0×10^5 cells/ml in complete medium. For the HIV-1 studies, the Haitian variant of HIV, HTLV-IIIRFwas used. For the HIV-2 studies, the NIH-DZ strain or the CBL20 strain was used. Frozen virus stock solutions were thawed immediately before use and resuspended in complete medium to yield 1.2×10 ^5 SFU/ml.
(§4) The appropriate amounts of the pure compounds for anti-HIV evaluations were dissolved in 100% dimethylsulfoxide (DMSO) and then diluted in complete medium to the desired initial concentration (with final DMSO content not exceeding 1%). All serial dilutions of the michellamines A, B, and C, reagent additions, and plate-to-plate transfers were carried out using an automated Biomek 1000 Workstation (Beckman Instruments, Palo Alto, Calif.). […] Subsequently, aliquots of cell-free supernatant were removed from each well using the Biomek, and analyzed for reverse transcriptase activity, p24 antigen production, and synthesis of infectious virions (see further below). A 25 μl sample of 0.002% (w/v) Fluoricon reference particles (590/620 nm) (Baxter Healthcare Corp.) was added to each well of the test plate to be used as an internal standard for fluorescence assays. […]
(§5) As an estimate of cellular viability, the metabolic reduction of the tetrazolium salt, XTT, to the soluble, colored formazan was carried out by adding 50 μl of the XTT/PMS solution to each well of the original test plate and incubating for 4 hrs at 37° C. After incubation the plates were covered with adhesive plate sealers (Dynatech, Alexandria, Va.) and shaken, and optical densities were determined using a V-max photometer (Molecular Devices, Inc., Menlo Park, Calif.) at a test wavelength of 450 nm. […]

HIV-2 [4] = assay: Anti-HIV-2 (CBL20 strain) activity in CEM-SS cells, XTT assay; format: cell-based, HIV-2 CBL20 strain in human CEM-SS cells; conditions: acetate salts
Experimental: as §3
as §4, with “Calif.). Each compound was diluted initially in complete medium and added to a single column of a 96-well microtiter plate (dilution plate). The Biomek was used to perform eight serial dilutions of each drug and to transfer a 100 μl aliquot of each dilution to the test plate. Uninfected CEM-SS or MT-2 cells were plated at a density of 1×10^4 cells in 50 μl of complete medium. Diluted HIV-1 or HIV-2 virus was then added to appropriate wells in a volume of 50 μl to yield a multiplicity of infection of 0.6. Appropriate cell, virus, and drug controls were used, with the final volume in each well being 200 μl.” for “Calif.).”
as §5

HIV = format: cell-based
Experimental: A portion (2.107 g) of this extract was suspended/dissolved in 330 ml of 5% aqueous HCl and extracted with four 100 ml aliquots of CHCl3.
The crude alkaloid fraction, obtained by acid-base partitioning, was subjected to centrifugal partition chromatography (CHCl3 --CH3 OH--0.5% HBr/H2 O, 5:5:3), and elution with the lower phase gave four fractions.

[5] = Variable temperature NMR for spontaneous interconversion of atropisomers; format: physicochemical
Text: Michellamine C appears to have the opposite configuration from michellamine A about the C-5/C-8' and C-5"'/C-8" bonds.

Cc1cn([C@H]2C[C@H](N=[N+]=[N-])[C@@H](CO)O2)c(=O)[nH]c1=O [AZT]
in vitro cytoprotective effects against HIV-1 (HIV-1 [1]): in vitro cytoprotective effects against the HIV-1

COc1cc(C)cc2c(-c3c(O)cc(O)c4c3C[C@@H](C)N[C@@H]4C)cc(-c3cc(-c4c(O)cc(O)c5c4C[C@@H](C)N[C@@H]5C)c4cc(C)cc(OC)c4c3O)c(O)c12 [Michellamine A]
EC50 (HIV-1 [2]; Human immunodeficiency virus 1, CEM-SS): 9.6 µM
IC50 (uninfected CEM-SS cells; Homo sapiens, CEM-SS): 168 µM
antiviral effects against HIV-2 (HIV-2 [3]; listed as michellamine A): showed antiviral effects
EC50 (HIV-2 [4]; listed as michellamine A): ~10 µM
anti-HIV-2 potency, comparison in words (HIV-2 [4]; listed as michellamine A): somewhat less potent
anti-HIV activity of isolated compounds (HIV): active

COc1cc(C)cc2c(-c3c(O)cc(O)c4c3C[C@@H](C)N[C@@H]4C)cc(-c3cc(-c4c(O)cc(O)c5c4C[C@@H](C)N[C@@H]5C)c4cc(C)cc(OC)c4c3O)c(O)c12 [Michellamine B]
EC50 (HIV-1 [2]; listed as B): 9.6 µM
IC50 (uninfected CEM-SS cells; listed as B): > 240 µM
EC (essentially complete protection) (HIV-2 [3]; Human immunodeficiency virus 2, MT2, 144 h, read-out: concentration giving essentially complete protection against killing effects of HIV-2 upon MT-2 cells): 30 to 100 µM
antiviral effects against HIV-2 (HIV-2 [3]; listed as michellamine B): showed antiviral effects; also recorded: consistently was more potent than michellamine A against HIV-2
EC50 (HIV-2 [4]; listed as michellamine B): < 2 µM

COc1cc(C)cc2c(-c3c(O)cc(O)c4c3C[C@@H](C)N[C@@H]4C)cc(-c3cc(-c4c(O)cc(O)c5c4C[C@@H](C)N[C@@H]5C)c4cc(C)cc(OC)c4c3O)c(O)c12 [Michellamine C]
EC50 (HIV-1 [2]; listed as C): 12.8 µM
IC50 (uninfected CEM-SS cells; listed as C): 193 µM
EC50 (HIV-2 [4]; listed as michellamine C): < 2 µM
spontaneous interconversion [5]: failed to show evidence of spontaneous interconversion
